The source of these data is ChEMBL document CHEMBL5291721, “A preclinical secondary pharmacology resource illuminates target-adverse drug reaction associations of marketed drugs” (Nat Commun, 2023).

Assay [1] addresses Sodium-dependent dopamine transporter (Homo sapiens, UniProt Q01959).
Assay [2] concerns the target T1, Cholecystokinin receptor type A (Homo sapiens, UniProt P32238).
T1 sequence (P32238 whole entry): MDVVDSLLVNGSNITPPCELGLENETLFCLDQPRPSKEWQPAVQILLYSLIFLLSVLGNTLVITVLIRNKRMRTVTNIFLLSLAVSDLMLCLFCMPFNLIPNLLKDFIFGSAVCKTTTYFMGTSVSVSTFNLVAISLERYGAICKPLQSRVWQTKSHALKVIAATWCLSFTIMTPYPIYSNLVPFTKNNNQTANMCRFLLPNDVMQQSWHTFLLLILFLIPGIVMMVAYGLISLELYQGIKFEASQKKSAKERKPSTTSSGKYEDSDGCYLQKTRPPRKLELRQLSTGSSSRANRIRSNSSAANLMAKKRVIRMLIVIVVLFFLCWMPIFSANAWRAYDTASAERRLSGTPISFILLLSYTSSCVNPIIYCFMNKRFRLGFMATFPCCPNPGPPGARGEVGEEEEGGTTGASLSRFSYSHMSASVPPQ

In assay [3] the target is T2, 5-hydroxytryptamine receptor 1A (Homo sapiens, UniProt P08908).
T2 sequence (P08908 whole entry): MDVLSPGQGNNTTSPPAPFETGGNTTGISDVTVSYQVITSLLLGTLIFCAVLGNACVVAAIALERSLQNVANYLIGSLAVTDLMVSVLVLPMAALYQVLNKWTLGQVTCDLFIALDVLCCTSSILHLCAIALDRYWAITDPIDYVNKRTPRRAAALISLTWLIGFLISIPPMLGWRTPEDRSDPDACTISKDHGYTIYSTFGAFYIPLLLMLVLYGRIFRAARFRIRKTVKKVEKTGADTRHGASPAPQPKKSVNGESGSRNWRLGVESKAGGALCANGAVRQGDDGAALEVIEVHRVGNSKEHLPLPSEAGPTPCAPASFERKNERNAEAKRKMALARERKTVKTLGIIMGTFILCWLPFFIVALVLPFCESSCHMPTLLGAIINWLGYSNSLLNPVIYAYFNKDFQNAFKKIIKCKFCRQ
The format is functional, cell-based.

The target in another assay is T3, Thromboxane A2 receptor (Homo sapiens, UniProt P21731).
T3 sequence (P21731 whole entry): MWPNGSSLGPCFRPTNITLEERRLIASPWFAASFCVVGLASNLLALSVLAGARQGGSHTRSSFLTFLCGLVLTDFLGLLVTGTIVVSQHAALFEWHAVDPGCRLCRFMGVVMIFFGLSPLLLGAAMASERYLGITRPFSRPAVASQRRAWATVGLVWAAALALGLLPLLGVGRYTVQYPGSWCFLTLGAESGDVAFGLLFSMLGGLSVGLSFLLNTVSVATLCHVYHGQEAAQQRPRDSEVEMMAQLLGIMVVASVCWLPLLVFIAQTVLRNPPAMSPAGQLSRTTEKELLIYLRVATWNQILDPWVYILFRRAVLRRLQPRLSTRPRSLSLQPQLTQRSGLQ

In another assay the target is Melanocortin receptor 3 (Homo sapiens, UniProt P41968).
The target of assay [4] is T4, Amine oxidase [flavin-containing] A (Homo sapiens, UniProt P21397).
T4 sequence (P21397 whole entry): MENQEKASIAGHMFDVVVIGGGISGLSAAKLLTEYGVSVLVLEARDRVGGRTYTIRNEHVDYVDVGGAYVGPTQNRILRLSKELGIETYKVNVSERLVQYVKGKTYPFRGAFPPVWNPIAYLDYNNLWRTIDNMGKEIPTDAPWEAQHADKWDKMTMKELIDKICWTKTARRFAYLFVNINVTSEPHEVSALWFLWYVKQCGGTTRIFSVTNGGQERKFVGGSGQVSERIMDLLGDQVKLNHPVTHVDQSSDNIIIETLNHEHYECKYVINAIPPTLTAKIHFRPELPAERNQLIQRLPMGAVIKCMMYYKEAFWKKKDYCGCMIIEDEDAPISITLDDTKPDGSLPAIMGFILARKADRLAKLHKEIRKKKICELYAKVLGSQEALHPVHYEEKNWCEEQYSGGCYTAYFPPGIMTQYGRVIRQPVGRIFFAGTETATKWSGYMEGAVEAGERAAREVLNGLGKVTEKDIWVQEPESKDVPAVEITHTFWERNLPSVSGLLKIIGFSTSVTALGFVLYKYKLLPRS
The format is functional.

In assay [5] the target is T5, Equilibrative nucleoside transporter 1 (Homo sapiens, UniProt Q99808).
T5 sequence (Q99808 whole entry): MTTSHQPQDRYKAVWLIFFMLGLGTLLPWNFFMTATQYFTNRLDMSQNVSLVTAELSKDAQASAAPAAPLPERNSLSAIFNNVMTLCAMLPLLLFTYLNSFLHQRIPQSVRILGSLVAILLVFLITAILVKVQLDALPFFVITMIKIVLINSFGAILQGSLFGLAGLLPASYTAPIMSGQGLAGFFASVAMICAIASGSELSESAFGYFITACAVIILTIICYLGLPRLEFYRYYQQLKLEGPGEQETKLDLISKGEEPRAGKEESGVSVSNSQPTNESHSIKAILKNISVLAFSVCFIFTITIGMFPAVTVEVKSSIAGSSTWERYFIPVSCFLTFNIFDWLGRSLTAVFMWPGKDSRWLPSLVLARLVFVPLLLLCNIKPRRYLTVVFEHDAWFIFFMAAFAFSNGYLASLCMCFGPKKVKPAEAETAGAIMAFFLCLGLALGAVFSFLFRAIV

Assay [6] concerns the target Voltage-gated inwardly rectifying potassium channel KCNH2 (Homo sapiens, UniProt Q12809). The format is functional.
The target of assay [7] is T6, Alpha-2A adrenergic receptor (Homo sapiens, UniProt P08913).
T6 sequence (P08913 whole entry): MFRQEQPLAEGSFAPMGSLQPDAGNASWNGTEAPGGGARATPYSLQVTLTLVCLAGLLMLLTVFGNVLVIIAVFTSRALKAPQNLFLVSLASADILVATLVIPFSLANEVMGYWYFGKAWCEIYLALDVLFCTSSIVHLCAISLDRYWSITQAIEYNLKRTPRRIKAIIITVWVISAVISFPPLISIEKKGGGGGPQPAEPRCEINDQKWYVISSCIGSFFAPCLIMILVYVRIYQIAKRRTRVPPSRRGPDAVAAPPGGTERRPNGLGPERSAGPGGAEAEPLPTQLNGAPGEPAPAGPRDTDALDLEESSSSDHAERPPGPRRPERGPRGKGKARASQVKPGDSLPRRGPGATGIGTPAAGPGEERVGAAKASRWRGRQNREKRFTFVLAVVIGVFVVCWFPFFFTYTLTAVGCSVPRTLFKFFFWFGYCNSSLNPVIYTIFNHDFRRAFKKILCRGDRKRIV
It counts as functional, cell-based.

Another assay has as its target D(1A) dopamine receptor (Homo sapiens, UniProt P21728). The format is functional, cell-based.
Also: assay procedure not described here.

Sequence of Sodium-dependent dopamine transporter (Q01959 whole entry): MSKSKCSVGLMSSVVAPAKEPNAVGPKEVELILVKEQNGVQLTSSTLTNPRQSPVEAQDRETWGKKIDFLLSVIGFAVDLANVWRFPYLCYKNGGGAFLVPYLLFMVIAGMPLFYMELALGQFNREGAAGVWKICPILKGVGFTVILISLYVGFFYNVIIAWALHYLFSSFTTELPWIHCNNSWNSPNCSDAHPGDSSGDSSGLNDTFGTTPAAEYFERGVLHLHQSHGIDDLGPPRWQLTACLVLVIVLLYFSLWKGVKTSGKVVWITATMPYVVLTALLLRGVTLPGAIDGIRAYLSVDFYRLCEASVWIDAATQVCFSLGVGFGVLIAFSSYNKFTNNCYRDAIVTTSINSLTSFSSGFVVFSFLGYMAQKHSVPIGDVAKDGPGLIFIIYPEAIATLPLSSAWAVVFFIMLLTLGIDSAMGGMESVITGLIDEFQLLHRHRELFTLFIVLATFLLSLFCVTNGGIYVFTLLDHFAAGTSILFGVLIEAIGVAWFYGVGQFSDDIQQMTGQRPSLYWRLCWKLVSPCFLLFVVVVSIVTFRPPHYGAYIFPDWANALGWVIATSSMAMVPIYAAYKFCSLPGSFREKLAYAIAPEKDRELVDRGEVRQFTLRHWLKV
Sequence of Melanocortin receptor 3 (P41968 whole entry): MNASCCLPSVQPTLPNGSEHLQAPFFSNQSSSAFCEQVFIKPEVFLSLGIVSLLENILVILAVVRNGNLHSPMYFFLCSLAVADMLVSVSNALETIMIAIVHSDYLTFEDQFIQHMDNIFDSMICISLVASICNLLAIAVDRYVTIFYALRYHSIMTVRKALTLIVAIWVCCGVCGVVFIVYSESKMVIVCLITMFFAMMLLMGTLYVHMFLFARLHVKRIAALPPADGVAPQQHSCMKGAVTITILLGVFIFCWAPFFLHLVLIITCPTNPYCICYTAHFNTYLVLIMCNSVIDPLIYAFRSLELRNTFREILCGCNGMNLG
Sequence of D(1A) dopamine receptor (P21728 whole entry): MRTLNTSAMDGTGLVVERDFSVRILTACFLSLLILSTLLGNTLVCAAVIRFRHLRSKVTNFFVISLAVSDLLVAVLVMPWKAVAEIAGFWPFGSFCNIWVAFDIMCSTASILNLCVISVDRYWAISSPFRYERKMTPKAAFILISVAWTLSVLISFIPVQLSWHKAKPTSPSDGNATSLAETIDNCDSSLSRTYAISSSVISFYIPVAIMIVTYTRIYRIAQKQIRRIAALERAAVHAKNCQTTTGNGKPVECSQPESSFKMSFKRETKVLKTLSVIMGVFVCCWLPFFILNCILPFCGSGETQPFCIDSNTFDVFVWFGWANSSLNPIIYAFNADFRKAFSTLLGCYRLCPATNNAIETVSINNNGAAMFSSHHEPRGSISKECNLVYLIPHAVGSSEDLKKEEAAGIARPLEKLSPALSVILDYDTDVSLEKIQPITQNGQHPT
Sequence of Voltage-gated inwardly rectifying potassium channel KCNH2 (Q12809 whole entry): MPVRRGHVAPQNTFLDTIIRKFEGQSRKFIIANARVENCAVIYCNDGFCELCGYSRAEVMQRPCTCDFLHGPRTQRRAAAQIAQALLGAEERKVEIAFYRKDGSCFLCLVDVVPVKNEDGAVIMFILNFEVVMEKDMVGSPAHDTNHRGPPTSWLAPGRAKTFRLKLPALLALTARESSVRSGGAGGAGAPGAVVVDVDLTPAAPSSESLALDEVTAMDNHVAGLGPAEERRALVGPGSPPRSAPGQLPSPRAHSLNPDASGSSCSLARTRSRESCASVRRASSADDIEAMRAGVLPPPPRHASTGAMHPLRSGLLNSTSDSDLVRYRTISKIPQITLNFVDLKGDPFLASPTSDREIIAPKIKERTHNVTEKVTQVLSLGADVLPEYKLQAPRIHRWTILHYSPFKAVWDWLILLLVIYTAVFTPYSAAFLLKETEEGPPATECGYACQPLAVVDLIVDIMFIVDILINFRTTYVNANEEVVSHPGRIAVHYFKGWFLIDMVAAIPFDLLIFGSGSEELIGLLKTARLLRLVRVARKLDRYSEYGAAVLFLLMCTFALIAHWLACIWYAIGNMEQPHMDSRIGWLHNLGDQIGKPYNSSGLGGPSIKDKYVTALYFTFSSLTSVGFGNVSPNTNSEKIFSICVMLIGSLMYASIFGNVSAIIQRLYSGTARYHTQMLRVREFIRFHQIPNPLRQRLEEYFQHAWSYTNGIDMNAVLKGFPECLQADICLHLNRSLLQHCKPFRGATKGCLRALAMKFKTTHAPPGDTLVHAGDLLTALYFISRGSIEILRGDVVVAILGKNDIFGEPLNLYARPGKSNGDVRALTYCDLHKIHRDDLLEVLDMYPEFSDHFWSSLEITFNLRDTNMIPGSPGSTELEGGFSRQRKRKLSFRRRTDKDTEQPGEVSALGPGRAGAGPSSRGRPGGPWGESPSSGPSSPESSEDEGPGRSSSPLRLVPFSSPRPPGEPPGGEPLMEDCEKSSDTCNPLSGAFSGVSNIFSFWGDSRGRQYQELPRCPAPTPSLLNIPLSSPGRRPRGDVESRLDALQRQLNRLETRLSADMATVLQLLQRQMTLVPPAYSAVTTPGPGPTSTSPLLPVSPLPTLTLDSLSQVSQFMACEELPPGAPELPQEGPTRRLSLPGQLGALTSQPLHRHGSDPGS

On to `COc1cc(C(=O)OCc2cccc(COC(=O)c3cc(OC)c(OC)c(OC)c3)n2)cc(OC)c1OC` [PIROZADIL], for which the AC50 (in [1]; in [2]; in assay [3]; at Thromboxane A2 receptor; on Melanocortin receptor 3; in assay [4]) was more than 30 µM each time. Further, the AC50 (in assay [5]; in assay [6]; in [7]; on D(1A) dopamine receptor) was more than 30 µM each time.
Regarding `Oc1cc(O)c(Cl)cn1`, the AC50 (in assay [1]; in assay [2]; in assay [3]; at Thromboxane A2 receptor; on Melanocortin receptor 3; in assay [4]) was more than 30 µM throughout. In addition, the AC50 (in [5]; in [6]; in assay [7]; at D(1A) dopamine receptor) was more than 30 µM each time.
As for `CCC(NC(C)C)C(O)c1ccc(O)c2[nH]c(=O)ccc12` (stereo unspecified) [PROCATEROL], the AC50 (in assay [1]; in assay [2]; in assay [3]; on Thromboxane A2 receptor; on Melanocortin receptor 3; in assay [4]) was more than 30 µM in each case. Moreover, the AC50 (in assay [5]; in [6]; in assay [7]; at D(1A) dopamine receptor) was more than 30 µM throughout.
Regarding `COc1ccc2cc(CCC(C)=O)ccc2c1` [NABUMETONE], the AC50 (commonly the concentration giving half of the maximal activity seen) in [1] is 7.8 µM; in [2] it was more than 10 µM; in assay [3], more than 10 µM; at Thromboxane A2 receptor, more than 10 µM; on Melanocortin receptor 3 it was more than 10 µM; in assay [5], more than 30 µM. For the same compound, the concentration at half-maximal activity (AC50) is more than 30 µM in assay [6], more than 10 µM in assay [7] and more than 30 µM at D(1A) dopamine receptor.
`O=c1c(O)c(-c2ccc(O)c(O)c2)oc2cc(O)cc(O)c12` [QUERCETIN]: the AC50 is more than 30 µM in assay [2]; more than 30 µM in [3]; more than 30 µM at Thromboxane A2 receptor; more than 30 µM at Melanocortin receptor 3; 5.6 µM in assay [4]; more than 30 µM in [5]. For the same compound, the AC50 was more than 30 µM in assay [6], more than 30 µM in assay [7] and more than 10 µM at D(1A) dopamine receptor.
`CC(CN(C)C)C(C)(O)Cc1ccc(Cl)cc1` (stereo unspecified) [CLOBUTINOL]: the concentration at half-maximal activity (AC50) in assay [1] is more than 30 µM; in assay [2], more than 30 µM; in assay [3] it was more than 10 µM; at Thromboxane A2 receptor it was more than 30 µM; on Melanocortin receptor 3, more than 30 µM; in assay [4] it was more than 10 µM. For the same compound, the AC50 in assay [5] is more than 30 µM; in assay [6], 8.45 µM; in assay [7], more than 10 µM; at D(1A) dopamine receptor, more than 10 µM.
On to `CC(=O)c1ccc(S(=O)(=O)NC(=O)NC2CCCCC2)cc1` [ACETOHEXAMIDE], for which the AC50 in [1] is more than 10 µM; in assay [2], more than 10 µM; in assay [3], more than 30 µM; on Thromboxane A2 receptor, more than 10 µM; at Melanocortin receptor 3 it was more than 10 µM; in assay [4], more than 10 µM. Moreover, the AC50 in assay [5] was more than 10 µM; in assay [6] it was more than 30 µM; in [7], more than 30 µM; at D(1A) dopamine receptor, more than 10 µM.
On to `CC1=C(/C=C/C(C)=C/C=C/C(C)=C/CO)C(C)(C)CCC1` [RETINOL], for which the AC50 (in assay [1]; in [2]; in [3]; on Thromboxane A2 receptor; at Melanocortin receptor 3; in assay [4]) was more than 10 µM in each case. The AC50 (in assay [5]; in [7]; on D(1A) dopamine receptor) was more than 10 µM in each case.
With `CCCN(CCC)S(=O)(=O)c1ccc(C(=O)O)cc1` [PROBENECID], the AC50 (in assay [1]; in assay [2]; in assay [3]; on Thromboxane A2 receptor; at Melanocortin receptor 3; in assay [4]) was more than 10 µM in each case. Besides, the AC50 was more than 10 µM in assay [5], more than 30 µM in assay [6], more than 10 µM in assay [7] and more than 10 µM at D(1A) dopamine receptor.
On to `O=c1[nH]c2ccccc2n1CCCN1CCN(C(c2ccccc2)c2ccccc2)CC1` [OXATOMIDE], for which the AC50 in assay [1] was 0.9 µM; in [2], more than 30 µM; in assay [3], more than 30 µM; at Thromboxane A2 receptor, more than 30 µM; on Melanocortin receptor 3, more than 30 µM; in [4] it was more than 30 µM. For the same compound, the values for the AC50 (in assay [6]; in [7]; at D(1A) dopamine receptor) were 0.026 µM, more than 30 µM and more than 30 µM, respectively.
Take `CC(C)NC[C@H](O)COc1ccc(CC(N)=O)cc1` [ESATENOLOL]: the AC50 was more than 30 µM in assay [2]; more than 10 µM in assay [3]; more than 30 µM at Thromboxane A2 receptor; more than 30 µM on Melanocortin receptor 3; more than 10 µM in assay [4]; more than 30 µM in [5]. The compound further gave an AC50 in assay [7] of more than 10 µM.
In the case of `CCN1CCCC1CNC(=O)c1cc(S(=O)(=O)CC)ccc1OC` (stereo unspecified) [SULTOPRIDE], the AC50 (in assay [1]; in [2]; in [3]; on Thromboxane A2 receptor; on Melanocortin receptor 3; in assay [4]) was more than 30 µM throughout. The AC50 was 3.5 µM in assay [6], more than 30 µM in assay [7] and more than 30 µM at D(1A) dopamine receptor.
For `COc1cc2[nH]c(C)c(CCN3CCN(c4ccccc4)CC3)c2cc1OC` [OXYPERTINE], the AC50 is 2.3 µM in assay [1]; more than 30 µM in assay [2]; more than 30 µM in assay [3]; more than 30 µM at Thromboxane A2 receptor; more than 30 µM at Melanocortin receptor 3; more than 30 µM in assay [4]. For the same compound, the AC50 in [5] is more than 30 µM; in assay [7] it was 7.4 µM; at D(1A) dopamine receptor it was more than 30 µM.
